Test results published in PMC7324608 (Scientific Reports, 2020).
Where a chain is given by its changes, count along the chain named. Names and notes keep the numbering of the source. Where no end group is shown, it is not given here. [ ]: non-standard residue; d: D form. Tyr(3-NO2) = N[C@@H](Cc1ccc(O)c([N+](=O)[O-])c1)C(=O)O; 2Abz = Nc1ccccc1C(=O)O

T1: HpHtrA wt (Helicobacter pylori, UniProt G2J5T2)
T1 sequence (G2J5T2 18-475): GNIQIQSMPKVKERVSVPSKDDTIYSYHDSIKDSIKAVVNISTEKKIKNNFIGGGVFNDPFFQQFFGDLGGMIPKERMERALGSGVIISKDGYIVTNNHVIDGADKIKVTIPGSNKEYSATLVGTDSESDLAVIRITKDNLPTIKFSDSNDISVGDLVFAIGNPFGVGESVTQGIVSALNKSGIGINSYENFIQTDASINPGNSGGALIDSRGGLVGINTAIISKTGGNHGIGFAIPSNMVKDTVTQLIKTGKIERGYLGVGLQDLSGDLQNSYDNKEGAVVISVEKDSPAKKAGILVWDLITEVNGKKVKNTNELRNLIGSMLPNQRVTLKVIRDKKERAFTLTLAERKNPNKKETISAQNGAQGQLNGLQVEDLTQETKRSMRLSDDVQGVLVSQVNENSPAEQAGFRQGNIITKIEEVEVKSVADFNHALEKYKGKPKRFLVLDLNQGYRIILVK

T2: HpHtrA (Helicobacter pylori, UniProt G2J5T2)
T2 construct: (HpHtrA, G18-K475, UniProt G2J5T2); GST (N, cleaved yes); made in house; host or cells: E. coli BL21
T2 sequence (G2J5T2 18-475): T1 sequence (G2J5T2 18-475)

B1: HpHtrA S164A (enzyme)
chain: T1 sequence (G2J5T2 18-475) with S147A
B2: HtrA wild type (wt) from the H. pylori strain Hp26695 (enzyme)
chain: T1 sequence (G2J5T2 18-475)
notes: also called HpHtrA; HpHtrA wt

Legend:
[1] = target: T1, HpHtrA wt; test: MS analysis of HpHtrA-mediated cleavage of the FRET peptide; assay type: biochemical; parameters: (HpHtrA, G18-K475, UniProt G2J5T2); GST (N, cleaved yes); made in house; host or cells: E. coli BL21; conditions: peptide:HpHtrA 20:1, 50 mM HEPES pH 7.4, 3 h, 37 °C, MALDI-TOF-MS
Experimental: (§1) Fig. S4. MS analysis of the HpHtrA-mediated cleavage products of 2-Abz-AQRVAF-Y(3-NO2)-NH2. The […]
(§2) ratio in 50 mM HEPES buffer (pH 7.4) for 3 h at 37°C. The samples were desalted by using ZipTip® pipette tips (Merck Millipore) and measured by MALDI -TOF-MS (positive mode). The peptide was found to be stable in the buffer in the absence of the protease as well as in the presence of the HpHtrA […]
(§3) (1 picture or pasted object on this page, not shown here)

[2] = assay type: physicochemical; conditions: 50 mM HEPES pH 7.4, 3 h, 37 °C, absence of protease and presence of HpHtrA SA mutant
Experimental: as §1, §2, §3

[3] = target: T2, HpHtrA; test: in vitro E-cadherin (hCdh1) cleavage by HpHtrA (Western blot); assay type: biochemical; conditions: 1 mM; 50 ng hCdh1, 250 ng HpHtrA, 16 h, 37 °C
Description: (§4) The proteins were separated by SDS-PAGE and visualized by staining with Coomassie Brilliant Blue G250 (Lactan, Vienna, Austria). […] Proteins were separated using SDS-PAGE and blotted onto a nitrocellulose membrane. Human Cdh1 was detected by an antibody recognizing the EC5 domain of hCdh1 (Abcam, Cambridge, UK) and a polyclonal serum was used to detect HpHtrA[22]. Independent experiments were repeated at least three times.

[4] = target: T2, HpHtrA; test: in vitro casein cleavage by HpHtrA (Coomassie SDS-PAGE); assay type: biochemical; conditions: 1 mM; 10 µg casein, 250 ng HpHtrA, 16 h, 37 °C
Description: as §4

[5] = target: the molecule itself; test: casein zymography + other: non-reducing SDS-PAGE; recombinant HpHtrA proteins in non-reducing sample buffer without beta-mercaptoethanol; SDS-PAGE with 0.1% casein, renatured and developed 24 h at 37 °C, or Coomassie-stained non-reducing SDS-PAGE for detection of multimers
[6] = target: the molecule itself; test: non-reducing SDS-PAGE; HpHtrA wt untreated or with increasing concentrations of ZnCl2 or CuCl2; Coomassie-stained SDS-PAGE under non-reducing conditions

Molecule | effect on HpHtrA-mediated hCdh1 cleavage/fragmentation [3] | effect on HtrA-mediated casein degradation [4] | other results
2-Abz-AQRVAF-Y(3-NO2)-NH2 ([2Abz]AQRVAF[Tyr(3-NO2)]-NH2; N-terminus assumed; SMILES CC(C)[C@H](NC(=O)[C@H](CCCNC(=N)N)NC(=O)[C@H](CCC(N)=O)NC(=O)[C@H](C)NC(=O)c1ccccc1N)C(=O)N[C@@H](C)C(=O)N[C@@H](Cc1ccccc1)C(=O)N[C@@H](Cc1ccc(O)c([N+](=O)[O-])c1)C(N)=O) [FRET substrate peptide AQRVAF with N-terminal 2-aminobenzoyl fluorophore and C-terminal 3-nitro-tyrosine quencher] |  |  | cleavage of the peptide by HpHtrA [1]: fully cleaved, preferentially after Val; stability of the peptide [2]: stable
O=C(O)CN(CCN(CC(=O)O)CC(=O)O)CC(=O)O [EDTA, ethylenediaminetetraacetic acid, reference compound] | considerably enhanced | did not alter | 
O=C(O)CN(CCOCCOCCN(CC(=O)O)CC(=O)O)CC(=O)O [EGTA, ethylene glycol-bis(β-aminoethyl ether)-N,N,N′,N′-tetraacetic acid, reference compound] | considerably enhanced | did not alter | 
[Ca+2].[Cl-].[Cl-] [Ca^++, CaCl2] | significantly blocked |  | 
B1 |  |  | binding result [5]: binds
B2 |  |  | binding result [6]: binds
